Reference: PubChem BioAssay (NCI)
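Values below derive from 48-hour exposures of cells grown in 96-well plates, with endpoints linearly interpolated between the two concentrations bracketing the appropriate inhibition level. The concentration for 50% growth inhibition is given as GI50. TGI: concentration producing complete growth inhibition.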

Columns and labels:
Assay in all cases: NCI anticancer screen, dose series, 48 h
HCC-2998 colon = test system: HCC-2998 colon
HS 578T breast = test system: HS 578T breast
KM12 colon = test system: KM12 colon
NCI-H23 lung = test system: NCI-H23 lung
NCI-H460 lung = test system: NCI-H460 lung
NCI-H522 lung = test system: NCI-H522 lung
SF-268 CNS = test system: SF-268 CNS
SN12C renal = test system: SN12C renal
TK-10 renal = test system: TK-10 renal
U251 CNS = test system: U251 CNS

SMILES	TGI (HCC-2998 colon) [µM]	TGI (HS 578T breast) [µM]	TGI (KM12 colon) [µM]	TGI (NCI-H23 lung) [µM]	TGI (NCI-H460 lung) [µM]	TGI (NCI-H522 lung) [µM]	TGI (SF-268 CNS) [µM]	TGI (SN12C renal) [µM]	TGI (TK-10 renal) [µM]	TGI (U251 CNS) [µM]	GI50 (HCC-2998 colon) [µM]	GI50 (HS 578T breast) [µM]	GI50 (KM12 colon) [µM]	GI50 (NCI-H23 lung) [µM]	GI50 (NCI-H460 lung) [µM]	GI50 (NCI-H522 lung) [µM]	GI50 (SF-268 CNS) [µM]	GI50 (SN12C renal) [µM]	GI50 (TK-10 renal) [µM]	GI50 (U251 CNS) [µM]
CC(C)=CCC/C(C)=C/COc1c2ccoc2cc2oc(=O)ccc12	79.7	> 100	> 100	> 100	> 100	74.8	> 100	> 100	> 100	55.5										
COc1ccc(C2C(C#N)=C(S)N(C3OC(COC(C)=O)C(OC(C)=O)C(OC(C)=O)C3OC(C)=O)C(c3ccccc3)=C2C(C)=O)cc1 (stereo not given)	> 100	> 100	> 100	> 100	> 100	> 100	> 100	> 100	> 100	> 100										
NC1=Nc2cc(Cl)ccc2Sc2nc3ccccc3n21	> 100	> 100	> 100	> 100	> 100	> 100	> 100	> 100	> 100	> 100										
COC1=CC(=O)CC(C)C12Oc1c(Cl)c(OC)cc(OC)c1C2=O (stereo not given)	> 100	> 80	> 100	> 100	> 100	23.1	> 100	> 100	> 100	> 100										
C[C@@H]1C(=O)C[C@H]2C(C)(C)CCC[C@]2(C)[C@@]1(O)CCc1ccoc1	> 100	> 100	> 100	> 100	> 100	> 100	> 100	> 100	> 100	> 100										
Cc1cc(S(=O)(=O)Nc2nc3ccccc3nc2-c2ccc(Cl)cc2)c(S)cc1Cl	29.1	73	35.4	33.4	29.4	28.3	35.3	56.7	63.7	34										
O=c1[nH]cc(Cl)c(=O)[nH]1	> 100	> 100	> 100	> 100	> 100	> 100	> 100	> 100	> 100	> 100										
N=c1c2c(=S)n(-c3ccccc3)c(=S)n(-c3ccccc3)c2nc(SCCN2CCCC2)n1-c1ccccc1	2.78	> 100	11.6	9.2	3.63	3.71	5.69	3.46	3.03	8.36										
Cc1cc(S(=O)(=O)Nc2nnc3cnc4ccccc4n23)c(S)cc1Cl	> 100	> 100	> 100	> 100	> 100	> 100	> 100	> 100	> 100	> 100										
CC(=O)Nc1ccc2[nH]c(C(=O)N3CC(CCl)c4c3cc([N+](=O)[O-])c3ccccc43)cc2c1 (stereo not given)	> 100	> 95	> 71.7	> 100	> 100	6.61	> 57.1	> 100	> 100	> 100										
COC1=CC2(CC(OC)=C1OC)OC21COc2ccccc2C1=O (stereo not given)	> 100	> 100	> 100	> 100	> 100	> 100	> 100	> 100	> 100	> 100										
C=C(C)COC1CCCCO1 (stereo not given)	> 100	> 100	> 100	> 100	> 100	> 100	> 100	> 100	> 100	> 100										
O=C(NC(=O)c1cc(-c2ccccc2)n[nH]1)c1ccccc1	> 100	> 100	> 100	> 100	> 100	> 100	> 100	> 100	> 100	> 100										
c1csc(-c2ccsc2-c2cccs2)c1	> 100	> 100	> 100	49.7	> 100	> 100	> 100	> 100	> 100	> 100										
O=C(/C=C/c1cccc(Oc2ccccc2)c1)NCc1ccc(C(=O)NCCc2ccccc2)cc1	> 100	> 100	> 100	> 100	> 100	> 100	> 100	> 100	> 100	> 100										
COC(=O)c1c(C#N)c(N)nc2c1CCC2	> 100	> 100	> 100	> 100	> 100	> 100	> 100	> 100	> 100	> 100										
COc1cc(OC)cc(-c2n/c(=C\c3c(O)[nH]c4ccc(OC)cc34)cc3c2=Nc2ccccc2-3)c1	3.51	47.7	6.21	8.47	5.62	37.2	41.2	> 100	9.86	3.84	1.87	16.1	2.58	2.78	2.36	17.8	10.2	> 100	3.82	1.93
CSc1ccn(C2CC(F)C(CO)O2)c(=O)n1 (stereo not given)	> 100	> 100	> 100	> 100	> 100	> 100	> 100	> 100	> 100	> 100										
Cc1ccc(-c2nc(N/N=C/c3ccc(O)cc3)c3ccccc3n2)cc1	30.8	> 100	41.4	33.8	50.1	30.1	> 100	25.4	68.5	65.7										
